Values quoted from earlier work, collected in patent US20030181473A1, “Farnesyl protein transferase inhibitor combinations with taxane compounds” (priority 2000, published 2003).

What was measured:
human tumor cells = settings: combination of paclitaxel and the farnesyl transferase inhibitor, in vitro
colon cancer (LoVo) = settings: combination of paclitaxel and the farnesyl transferase inhibitor; mouse colon cancer (LoVo) model

## Cn1cncc1C(N)(c1ccc(Cl)cc1)c1ccc2c(c1)c(-c1cccc(Cl)c1)cc(=O)n2C (single isomer, unassigned; (+)) [(+)-6-[amino(4-chlorophenyl)(1-methyl-1H-imidazol-5-yl)methyl]-4-(3-chlorophenyl)-1-methyl-2(1H)-quinolinone]
Human tumor cells
  anti-tumor effect of the combination: additive anti-tumor effect
Colon cancer (LoVo)
  anti-tumor effect of the combination: additive anti-tumor effect
